Legend:
[1] = target: T1, AtPrR1 (Arabidopsis thaliana, UniProt Q9FVQ6); assay: X-ray crystal structure, co-crystal; type: binding; conditions: wild type
T1 construct: gene PRR1; full-length, pET-duet-1, E. coli Rosetta (DE3), Ni-NTA and Superdex-200; homodimer
T1 sequence (Q9FVQ6 1-317): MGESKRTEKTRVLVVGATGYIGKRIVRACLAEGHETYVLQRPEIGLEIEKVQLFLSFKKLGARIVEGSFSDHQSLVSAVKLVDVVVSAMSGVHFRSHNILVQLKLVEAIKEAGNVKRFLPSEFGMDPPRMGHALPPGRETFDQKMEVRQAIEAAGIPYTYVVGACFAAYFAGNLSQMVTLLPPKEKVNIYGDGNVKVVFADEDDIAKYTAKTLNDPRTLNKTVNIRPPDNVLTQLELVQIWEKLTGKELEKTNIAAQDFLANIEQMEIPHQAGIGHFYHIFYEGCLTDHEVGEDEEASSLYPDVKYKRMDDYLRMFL

[2] = target: T2, AtPrR2 (Arabidopsis thaliana, UniProt Q9SVP6); assay: X-ray crystal structure, co-crystal; type: binding; conditions: wild type, 1.6 Å
T2 construct: gene PRR2; full-length, pET-duet-1, E. coli Rosetta (DE3), Ni-NTA and Superdex-200; homodimer
T2 sequence (Q9SVP6 1-317): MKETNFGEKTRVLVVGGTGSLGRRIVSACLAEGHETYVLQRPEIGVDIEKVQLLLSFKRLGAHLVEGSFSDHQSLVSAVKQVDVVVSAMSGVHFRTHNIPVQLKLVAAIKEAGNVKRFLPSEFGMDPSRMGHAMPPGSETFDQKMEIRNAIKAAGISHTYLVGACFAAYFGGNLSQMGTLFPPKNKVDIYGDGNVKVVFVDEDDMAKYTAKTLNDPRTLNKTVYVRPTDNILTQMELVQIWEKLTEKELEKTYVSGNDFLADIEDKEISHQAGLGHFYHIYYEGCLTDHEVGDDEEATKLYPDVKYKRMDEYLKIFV

[3] = target: T3, IiPLR1 (Isatis tinctoria, UniProt I6LRS1); assay: X-ray crystal structure, co-crystal; type: binding; conditions: wild type
T3 construct: full-length, pET-duet-1, E. coli Rosetta (DE3), Ni-NTA and Superdex-200; homodimer
T3 sequence (I6LRS1 1-317): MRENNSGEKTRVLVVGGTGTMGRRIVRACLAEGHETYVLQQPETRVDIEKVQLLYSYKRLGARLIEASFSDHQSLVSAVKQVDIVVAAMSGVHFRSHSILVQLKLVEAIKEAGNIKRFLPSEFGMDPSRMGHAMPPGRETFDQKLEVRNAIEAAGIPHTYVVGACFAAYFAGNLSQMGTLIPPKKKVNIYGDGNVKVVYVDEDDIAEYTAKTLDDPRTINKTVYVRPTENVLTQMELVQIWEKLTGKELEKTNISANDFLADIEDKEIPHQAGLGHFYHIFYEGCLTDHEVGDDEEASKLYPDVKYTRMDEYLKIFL

[4] = target: T4, AtPrR2 (Arabidopsis thaliana, UniProt Q9SVP6, N98S); assay: LC-MS product conversion; type: biochemical; conditions: NADPH 150 μM, Tris-HCl pH 7.0, 30 °C, 30 min
T4 construct: gene PRR2; full-length, pET-duet-1, E. coli Rosetta (DE3), Ni-NTA and Superdex-200; homodimer
T4 sequence (Q9SVP6 1-317 N98S): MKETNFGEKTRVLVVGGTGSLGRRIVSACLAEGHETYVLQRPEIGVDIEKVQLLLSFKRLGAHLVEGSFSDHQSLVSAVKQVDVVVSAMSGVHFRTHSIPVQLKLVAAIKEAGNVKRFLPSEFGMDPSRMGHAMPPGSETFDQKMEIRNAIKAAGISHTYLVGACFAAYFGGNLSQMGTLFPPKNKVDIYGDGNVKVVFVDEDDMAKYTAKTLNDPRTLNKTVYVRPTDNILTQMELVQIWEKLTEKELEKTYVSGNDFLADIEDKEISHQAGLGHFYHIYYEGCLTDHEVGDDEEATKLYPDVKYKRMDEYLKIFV

[5] = target: Isatis indigotica pinoresinol-lariciresinol reductase 1 (Isatis indigotica); assay: crystal structure; sitting-drop vapour diffusion at 20 or 4 °C, protein 5-10 mg/mL; apo, with NADP+ (1:5) or with NADP+ and substrate/product (1:5:10); homodimer seen in the crystal
[6] = target: the molecule itself; assay: as above
[7] = substrate: COc1cc(C2OCC3C(c4ccc(O)c(OC)c4)OCC23)ccc1O; assay: LC-MS substrate consumption, Lineweaver-Burk; type: biochemical, Isatis tinctoria; conditions: NADPH 150 μM, 50 mM Tris-HCl pH 7.0, 10% glycerol, 30 °C, racemic substrate
From the text: (§1) LC-MS substrate consumption, Lineweaver-Burk on IiPLR1

[8] = substrate: COc1cc(CC2COC(c3ccc(O)c(OC)c3)C2CO)ccc1O; assay: LC-MS substrate consumption, Lineweaver-Burk; type: biochemical, Isatis tinctoria; conditions: NADPH 150 μM, 50 mM Tris-HCl pH 7.0, 10% glycerol, 30 °C, racemic substrate
From the text: as §1

COc1cc(C[C@H]2CO[C@H](c3ccc(O)c(OC)c3)[C@H]2CO)ccc1O [+LAR, (+)-lariciresinol]
X-ray crystal structure, co-crystal ([1]; with NADP+, 1.8 Å): 7CSD (AtPrR1 with NADP^+ and (+)lariciresinol)

COc1cc([C@H]2OC[C@H]3[C@@H]2CO[C@@H]3c2ccc(O)c(OC)c2)ccc1O [+PIN, (+)-pinoresinol]
X-ray crystal structure, co-crystal ([1]; with NADP+, 2.0 Å): 7CSB (AtPrR1 with NADP^+ and (+)pinoresinol) | X-ray crystal structure, co-crystal ([2]; with NADP+): 7CSH (AtPrR2 with NADP^+ and (+)pinoresinol) | X-ray crystal structure, co-crystal ([3]; with NADP+, 2.3 Å): 7CS4 (IiPLR1 with NADP^+ and (+)pinoresinol)

COc1cc(C[C@H](CO)[C@@H](CO)Cc2ccc(O)c(OC)c2)ccc1O [+SEC, (+)-secoisolariciresinol]
X-ray crystal structure, co-crystal ([3]; with NADP+, 2.3 Å): 7CS7 (IiPLR1 with NADP^+ and (+)secoisolariciresinol)

COc1cc(C[C@@H]2CO[C@@H](c3ccc(O)c(OC)c3)[C@@H]2CO)ccc1O [-LAR, (−)-lariciresinol]
X-ray crystal structure, co-crystal ([1]; with NADP+, 2.5 Å): 7CSE (AtPrR1 with NADP^+ and (−)lariciresinol) | X-ray crystal structure, co-crystal ([3]; with NADP+, 2.2 Å): 7CS6 (IiPLR1 with NADP^+ and (−)lariciresinol)

COc1cc([C@@H]2OC[C@@H]3[C@H]2CO[C@H]3c2ccc(O)c(OC)c2)ccc1O [-PIN, (−)-pinoresinol]
X-ray crystal structure, co-crystal ([1]; with NADP+, 2.5 Å): 7CSC (AtPrR1 with NADP^+ and (−)pinoresinol) | X-ray crystal structure, co-crystal ([3]; with NADP+, 2.1 Å): 7CS5 (IiPLR1 with NADP^+ and (−)pinoresinol)

COc1cc(C[C@@H](CO)[C@H](CO)Cc2ccc(O)c(OC)c2)ccc1O [-SEC, (−)-secoisolariciresinol]
X-ray crystal structure, co-crystal ([1]; with NADP+, 2.0 Å): 7CSF (AtPrR1 with NADP^+ and (−)secoisolariciresinol) | X-ray crystal structure, co-crystal ([3]; with NADP+, 2.6 Å): 7CS8 (IiPLR1 with NADP^+ and (−)secoisolariciresinol)

NC(=O)c1ccc[n+]([C@@H]2O[C@H](COP(=O)(O)OP(=O)(O)OC[C@H]3O[C@@H](n4cnc5c(N)ncnc54)[C@H](OP(=O)(O)O)[C@@H]3O)[C@@H](O)[C@H]2O)c1 [NAP, NADP^+]
X-ray crystal structure, co-crystal ([1]; 2.0 Å): 7CSA (AtPrR1 with NADP^+) | X-ray crystal structure, co-crystal ([2]; with (+)-pinoresinol): 7CSH (AtPrR2 with NADP^+ and (+)pinoresinol) | X-ray crystal structure, co-crystal ([3]; 2.4 Å): 7CS3 (IiPLR1 with NADP^+)

COc1cc(C[C@H]2CO[C@H](c3ccc(O)c(OC)c3)[C@H]2CO)ccc1O [lariciresinol]
LC-MS product conversion [4]: AtPrR2 mutant N98S could utilize lariciresinol to produce secoisolariciresinol

Isatis indigotica pinoresinol-lariciresinol reductase 1 (enzyme)
stoichiometry N [5]: 2

B1: Arabidopsis thaliana pinoresinol reductase 1 (enzyme, UniProt Q9FVQ6 1-317, looked up)
chain: MGESKRTEKTRVLVVGATGYIGKRIVRACLAEGHETYVLQRPEIGLEIEKVQLFLSFKKLGARIVEGSFSDHQSLVSAVKLVDVVVSAMSGVHFRSHNILVQLKLVEAIKEAGNVKRFLPSEFGMDPPRMGHALPPGRETFDQKMEVRQAIEAAGIPYTYVVGACFAAYFAGNLSQMVTLLPPKEKVNIYGDGNVKVVFADEDDIAKYTAKTLNDPRTLNKTVNIRPPDNVLTQLELVQIWEKLTGKELEKTNIAAQDFLANIEQMEIPHQAGIGHFYHIFYEGCLTDHEVGEDEEASSLYPDVKYKRMDDYLRMFL
notes: Head-to-tail homodimer in all crystal forms; crystallised apo, with NADP+, or with NADP+ and substrate/product; also called AtPrR1; PrR; source: E. coli Rosetta (DE3), purified (Ni-NTA, Superdex-200); not shown: His tag (inferred from the Ni-NTA purification)
stoichiometry N [6]: 2

B2: Arabidopsis thaliana pinoresinol reductase 2 (enzyme, UniProt Q9SVP6 1-317, looked up)
chain: MKETNFGEKTRVLVVGGTGSLGRRIVSACLAEGHETYVLQRPEIGVDIEKVQLLLSFKRLGAHLVEGSFSDHQSLVSAVKQVDVVVSAMSGVHFRTHNIPVQLKLVAAIKEAGNVKRFLPSEFGMDPSRMGHAMPPGSETFDQKMEIRNAIKAAGISHTYLVGACFAAYFGGNLSQMGTLFPPKNKVDIYGDGNVKVVFVDEDDMAKYTAKTLNDPRTLNKTVYVRPTDNILTQMELVQIWEKLTEKELEKTYVSGNDFLADIEDKEISHQAGLGHFYHIYYEGCLTDHEVGDDEEATKLYPDVKYKRMDEYLKIFV
notes: Head-to-tail homodimer in both crystal forms (apo); with NADP+ and (+)-pinoresinol); also called AtPrR2; PrR; source: E. coli Rosetta (DE3), purified (Ni-NTA, Superdex-200); not shown: His tag (inferred from the Ni-NTA purification)
stoichiometry N [6]: 2

B3: IiPLR1 (Isatis tinctoria; V46A) (protein)
chain: MRENNSGEKTRVLVVGGTGTMGRRIVRACLAEGHETYVLQQPETRADIEKVQLLYSYKRLGARLIEASFSDHQSLVSAVKQVDIVVAAMSGVHFRSHSILVQLKLVEAIKEAGNIKRFLPSEFGMDPSRMGHAMPPGRETFDQKLEVRNAIEAAGIPHTYVVGACFAAYFAGNLSQMGTLIPPKKKVNIYGDGNVKVVYVDEDDIAEYTAKTLDDPRTINKTVYVRPTENVLTQMELVQIWEKLTGKELEKTNISANDFLADIEDKEIPHQAGLGHFYHIFYEGCLTDHEVGDDEEASKLYPDVKYTRMDEYLKIFL
notes: full-length, pET-duet-1, E. coli Rosetta (DE3), Ni-NTA and Superdex-200; homodimer
Km [7]: 29.4 ± 1.62 µM | Vmax [7]: 3.22 µM/min | kcat [7]: 1.91 ± 0.402 s⁻¹ | kcat/Km [7]: 64700 ± 10800 M⁻¹ s⁻¹ | Km [8]: 26.5 ± 0.60 µM | Vmax [8]: 0.023 µM/min | kcat [8]: 0.0135 ± 0.00075 s⁻¹ | kcat/Km [8]: 517 ± 33.3 M⁻¹ s⁻¹

Source: paper PMC8121951, “Structure-based engineering of substrate specificity for pinoresinol-lariciresinol reductases” (Nature Communications, 2021)
